Experimental data as given in patent US20180201647A1, “Peptoid” (The University of Durham, priority 2015, published 2018).
Read-outs that look alike come from different tables or passages of the source. Blank lines part the entries; values can stand above or below the compound they belong to. *1 amine or outer side, *2 acyl side, *3 side chain or, on linkers, in order; H or OH if unused. Where a SMILES comes first, the peptide text is derived from it. [ ]: non-standard residue; d: D form. Gly(N-2-aminoethyl) = NCCNCC(=O)O; X1 = N=C(N)NCCN(CC(=O)[*:2])[*:1]; Nspe = C[C@H](NCC(=O)O)c1ccccc1; NhArg = N=C(N)NCCCCNCC(=O)O; Nlys = NCCCCNCC(=O)O

Key:
Type in all cases: cell-based
[1] = test system: T. cruzi Tulahuen strain C2C4; assay: microbe, parasite or virus in culture; conditions: for IC50: in L-6 cells, 96 h
Procedure: Rat skeletal myoblasts (L-6 cells) were seeded in 96-well microtitre plates at 2000 cells/well in 100 μL RPMI 1640 medium with 10% FBS and 2 mM 1-glutamine. After 24 h the medium was removed and replaced by 100 μl per well containing 5000 trypomastigote forms of T. cruzi Tulahuen strain C2C4 containing the β-galactosidase (Lac Z) gene. After 48 h the medium was removed from the wells and replaced by 100 μl fresh medium with or without a serial drug dilution of eleven 3-fold dilution steps covering a range from 100 to 0.002 μg/ml. After 96 h of incubation the plates were inspected under an inverted microscope to assure growth of the controls and sterility. Then the substrate CPRG/Nonidet (50 μl) was added to all wells. A color reaction developed within 2-6 h and could be read photometrically at 540 nm. Data were analyzed with the graphic programme Softmax Pro (Molecular Devices), which calculated IC50 values by linear regression from the sigmoidal dose inhibition curves. Benznidazole is used as control (IC50 0.5+0.2 μg/ml).

[2] = test system: Trypanosoma brucei rhodesiense STIB900
Procedure: This stock was isolated in 1982 from a human patient in Tanzania and after several mouse passages cloned and adapted to axenic culture conditions. Minimum Essential Medium (50 μl) supplemented with 25 mM HEPES, 1 g/l additional glucose, 1% MEM non-essential amino acids (100×), 0.2 mM 2-mercaptoethanol, 1 mM Na-pyruvate and 15% heat inactivated horse serum was added to each well of a 96-well microtiter plate. Serial drug dilutions of eleven 3-fold dilution steps covering a range from 100 to 0.002 μg/ml were prepared. Then 4×10^3 bloodstream forms of T. b. rhodesiense STIB 900 in 50 μl was added to each well and the plate incubated at 37° C. under a 5% CO2 atmosphere for 70 h. 10 μl Alamar Blue (resazurin, 12.5 mg in 100 ml double-distilled water) was then added to each well and incubation continued for a further 2-4 h. Then the plates were read with a Spectramax Gemini XS microplate fluorometer (Molecular Devices Cooperation, Sunnyvale, Calif., USA) using an excitation wave length of 536 nm and an emission wave length of 588 nm. The IC50 values were calculated by linear regression from the sigmoidal dose inhibition curves using SoftmaxPro software (Molecular Devices Cooperation, Sunnyvale, Calif., USA). Melarsoprol (Arsobal Sanofi-Aventis, received from WHO) is used as control.

[3] = test system: erythrocytic stages of P. falciparum
Procedure: In vitro activity against erythrocytic stages of P. falciparum was determined using a 3H-hypoxanthine incorporation assay using the drug sensitive NF54 strain (Schipol airport) or the chloroquine and pyrimethamine resistant K1 strain that originate from Thailand and the standard drug chloroquine (Sigma C6628). Compounds were dissolved in DMSO at 10 mg/ml and added to parasite cultures incubated in RPMI 1640 medium without hypoxanthine, supplemented with HEPES (5.94 g/l), NaHCO3 (2.1 g/1), neomycin (100 U/ml), Albumax® (5 g/l) and washed human red cells A^+ at 2.5% haematocrit (0.3% parasitaemia). Serial drug dilutions of eleven 3-fold dilution steps covering a range from 100 to 0.002 μg/ml were prepared. The 96-well plates were incubated in a humidified atmosphere at 37° C.; 4% CO2, 3% O2, 93% N2. After 48 h 50 μl of 3H-hypoxanthine (=0.5 μCi) was added to each well of the plate. The plates were incubated for a further 24 h under the same conditions. The plates were then harvested with a Betaplate™ cell harvester (Wallac, Zurich, Switzerland), and the red blood cells transferred onto a glass fibre filter then washed with distilled water. The dried filters were inserted into a plastic foil with 10 ml of scintillation fluid, and counted in a Betaplate™ liquid scintillation counter (Wallac, Zurich, Switzerland). IC50 values were calculated from sigmoidal inhibition curves by linear regression using Microsoft Excel. Chloroquine and artemisinin are used as control.

[4] = test system: L. donovani strain MHOM/ET/67/L82 axenic amastigotes
Procedure: Amastigotes of L. donovani strain MHOM/ET/67/L82 were grown in axenic culture at 37° C. in SM medium^24 at pH 5.4 supplemented with 10% heat-inactivated fetal bovine serum under an atmosphere of 5% CO2 in air. One hundred microlitres of culture medium with 10^5 amastigotes from axenic culture with or without a serial drug dilution were seeded in 96-well microtitre plates. Serial drug dilutions of eleven 3-fold dilution steps covering a range from 90 to 0.002 μg/ml were prepared. After 70 h of incubation the plates were inspected under an inverted microscope to assure growth of the controls and sterile conditions. 10 μl of Alamar Blue (12.5 mg resazurin dissolved in 100 ml distilled water) were then added to each well and the plates incubated for another 2 h. Then the plates were read with a Spectramax Gemini XS microplate fluorometer (Molecular Devices Cooperation, Sunnyvale, Calif., USA) using an excitation wave length of 536 nm and an emission wave length of 588 nm. Data were analyzed using the software Softmax Pro (Molecular Devices Cooperation, Sunnyvale, Calif., USA). Decrease of fluorescence (=inhibition) was expressed as percentage of the fluorescence of control cultures and plotted against the drug concentrations. From the sigmoidal inhibition curves the IC50 values were calculated.

[5] = test system: Escherichia coli K12 W3110
Procedure: (§1) Species used in MIC assays included gram-negative Escherichia coli K12 W3110, Pseudomonas aeruginosa laboratory strain PAO2 and Serratia marcescens laboratory strain and gram-positive Staphylococcus aureus NCTC 6571 and Micrococcus luteus laboratory strain.
(§2) Bacterial cultures were prepared by streaking the bacterial strains on to agar plates with an inoculation loop and incubating overnight at 37° C. A single colony was then selected and placed in 5 mL of Iso-Sensitest broth using an inoculation loop and incubated at 37° C. with shaking overnight.
(§3) MIC values were attained according to the protocol described by J. M. Andrews et al. [J. M. Andrews, J. Antimicrob. Chemother., 2001, 48, 5-16] and were conducted in 96-well microtitre plates in triplicate. 10-50 μL of each overnight culture was inoculated into 1.2 mL of Iso-Sensitest broth and grown at 37° C. with shaking. […] The inoculum was diluted ten-fold with Iso-Sensitest broth before use (to ˜10^3 cfu/spot). Peptide solutions were initially dissolved in DMSO (5 mg mL^−1) and then diluted further with Iso-Sensitest broth to achieve a concentration range of 4 mgL^−1 to 512 mgL^−1 using 2-fold serial dilutions. Samples were vortexed between dilutions where necessary to aid dissolution. 50 μL of inoculum and 50 μL of peptide solution were added to each test well to achieve a final concentration range of 2 mgL^−1 to 256 mgL^−1. Separate dilutions of ampicillin and DMSO were made up in a similar manner to act as a positive antibacterial control and a +DMSO control, respectively. 50 μL of inoculum and 50 μL of Iso-Sensitest broth were used as a positive control and 100 μL of inoculum was used as a negative control. Positive and negatives controls were conducted multiple times in parallel per plate. […] Quantitative data were attained as A650nm values using a BioTek® Synergy™ H4 Hybrid Multi-Mode Microplate Reader.

[6] = test system: Serratia marcescens laboratory strain; conditions: 16 h
Procedure: as §1, §2, §3

[7] = test system: Staphylococcus aureus NCTC 6571
Procedure: as §1, §2, §3

[8] = test system: Pseudomonas aeruginosa laboratory strain PAO2
Procedure: as §1, §2, §3

[9] = test system: S. aureus (NCTC 6571) biofilm; assay: Single species biofilm treatment, crystal violet assay; conditions: 100 μM peptoid, 24 hours, FIG. 17B
Procedure: C. albicans (NCTC 3179) was subcultured aerobically on Sabouraud agar plates and propagated in yeast peptone dextrose broth. E. coli (ATCC 29522) and S. aureus (NCTC 6571) were grown on blood agar plates and propagated in brain heart infusion (BHI) broth.
Overnight cultures of C. albicans were washed and resuspended in a modified RPMI-1640 (Sigma-Aldrich, St Louis, USA) medium to yield an inoculum of 1.0×10^6 cells/ml. Overnight cultures of S. aureus or E. coli were washed and resuspended in brain heart infusion broth (Oxoid, Basingstoke, UK) to yield an inoculum of 5.0×10^6 cells/ml. A total volume of 100 μl of each inoculum was added to microtitre plate wells (Thermo Fisher Scientific, Roskilde, Denmark). An initial biofilm was allowed to form for 4 hours. Wells were washed three times with 200 μl PBS to facilitate removal of planktonic cells and the biofilms were then treated with 100 μM of peptoids 1-4 in the appropriate broth. Plates were incubated for a further 24 hours to allow biofilm maturation. After removal of planktonic cells by washing, biofilms were quantified by the crystal violet assay or by PMA-qPCR.
Biofilm quantification by crystal violet assay Washed biofilms were fixed with 100 μl methanol for 10 minutes. Following removal of methanol, the wells were air dried and stained with crystal violet solution (Clin-Tech Ltd, Guildford, UK) for 20 minutes at room temperature. Excess stain was removed by washing, the plate was then air dried and bound crystal violet was re-solubilised in 16 μl 33% acetic acid prior to reading at 570 nm in a microtitre plate reader (Tecan GENios, Ziirich, Switzerland).

[10] = second figure of cell, 37° C., 16 h, Iso-Sensitest broth

Compound: O=C(Cn1ccnc1[N+](=O)[O-])NCc1ccccc1 [Benznidazole, reference compound]
IC50 ([1]; Trypanosoma cruzi, TULAHUEN, L6, control drug, read-out: IC50 T. cruzi, control): 0.5 µg/mL

Compound: C[C@@H](c1ccccc1)N(CC(N)=O)C(=O)CN(C(=O)CN(CCN)C(=O)CN(C(=O)CN(C(=O)CN(CCNC(=N)N)C(=O)CN(C(=O)CN(C(=O)CN(CCN)C(=O)CN(C(=O)CN(C(=O)CNCCNC(=N)N)[C@@H](C)c1ccccc1)[C@@H](C)c1ccccc1)[C@@H](C)c1ccccc1)[C@@H](C)c1ccccc1)[C@@H](C)c1ccccc1)[C@@H](C)c1ccccc1)[C@@H](C)c1ccccc1 [Peptoid 6, [(NnArgNspeNspe)(NaeNspeNspe)]2] (H-[X1][Nspe][Nspe][Gly(N-2-aminoethyl)][Nspe][Nspe][X1][Nspe][Nspe][Gly(N-2-aminoethyl)][Nspe][Nspe]-NH2; N-terminus assumed)
IC50 ([2]; 70 h): 6.44 µM
active against T. brucei rhodesiense ([2]; statement in words): active
IC50 ([1]; read-out: IC50 T. cruzi): 6.58 µM
active against T. cruzi ([1]; statement in words): active
active against P. falciparum ([3]; statement in words): active
IC50 ([3]; strain (NF54 or K1) not given): 0.99 µM
active against L. donovani ([4]; statement in words): active
IC50 ([4]; strain MHOM/ET/67/L82 axenic amastigotes, 70 h): 9.51 µM

MIC E. coli ([5]; K12, 16 h): 17 µM
MIC E. coli [5, 10]: 32 mgL^−1
MIC S. marcescens ([6]; laboratory strain): 134 µM
MIC S. marcescens ([6]; second figure of cell, 37° C., Iso-Sensitest broth): 256 mgL^−1
MIC S. aureus ([7]; NCTC 6571, 16 h): 17 µM
MIC S. aureus [7, 10]: 32 mgL^−1
MIC P. aeruginosa ([8]; laboratory strain PAO2, 16 h): 17 µM
MIC P. aeruginosa [8, 10]: 32 mgL^−1
Compound: C[C@@H](c1ccccc1)N(CC(N)=O)C(=O)CN(C(=O)CN(CCCCN)C(=O)CN(C(=O)CN(C(=O)CN(CCCCN)C(=O)CN(C(=O)CN(C(=O)CN(CCCCNC(=N)N)C(=O)CN(C(=O)CN(C(=O)CNCCCCN)[C@@H](C)c1ccccc1)[C@@H](C)c1ccccc1)[C@@H](C)c1ccccc1)[C@@H](C)c1ccccc1)[C@@H](C)c1ccccc1)[C@@H](C)c1ccccc1)[C@@H](C)c1ccccc1 [Peptoid 3, (NLys-Nspe-Nspe)(NhArg-Nspe-Nspe)(NLys-Nspe-Nspe)2] (H-[Nlys][Nspe][Nspe][NhArg][Nspe][Nspe][Nlys][Nspe][Nspe][Nlys][Nspe][Nspe]-NH2; N-terminus assumed)
activity against the S. aureus biofilm [9]: strongest anti-bacterial activity
